The subject of one series is Male Sprague-Dawley rats. The series is described as follows: measurement of isoflurane MAC (tail clamp). Format: in vivo, rat. The following applies: for MAC (isoflurane): mean ± SD. How it is done: The ODNs were dissolved in saline before administration. As described in the previous work,^49 the rats were injected intrathecally with saline (10 μl) (control), antisense ODNs (12.5, 25, 50 μg/10 μl), sense ODN (50 μg/10 μl) and missense ODN (50 μg/10 μl), respectively, followed by an injection of 10 μl of saline to flush the catheter, every 24 h for 4 days.
On the fifth day after saline or ODNs injection, each rat was placed in a clear plastic cone and anesthetized with 5% isoflurane in oxygen for three to five minutes. After tracheostomy, the trachea of each animal was intubated with a 16-gauge polyethylene catheter. The inspired isoflurane concentration was reduced to 2%, and the animals breathed spontaneously until cannulation of a carotid artery and a jugular vein with PE-50 tubing was accomplished. The isoflurane concentration was decreased further to 1.5%, and ventilation was controlled by a Harvard Animal Respirator (Harvard Apparatus, South Natick, Mass.) adjusted according to the measurement of arterial blood gases to maintain normal partial pressure of oxygen (PO2=91-94 mmHg), partial pressure of carbon dioxide (PCO2=33-41 mmHg) and pH (7.4-7.44). Electrocardiography and systolic and diastolic blood pressure were monitored using a Grass Polygraph (Astroumed Grass, Quincy, Mass.) and Gould Pressure Transducer (Gould, Cleveland, Ohio). Rectal temperature was maintained between 36.5 and 37.5° C. by use of a heating blanket and warming lights.
A PE-10 catheter was introduced through and beyond the endotracheal tube until obstruction to passage was met and then withdrawn 1 to 2 mm. For isoflurane MAC measurement, the PE-10 catheter was connected to a parameter airway gas monitor (Datex-Engstrom, Inc., Tewksbury, Mass.). After stabilizing about 30 minutes, MAC was measured according to the methods described previously^34 using a long hemostat (8-inch Rochester Dean Hemostatic Forceps) clamped to the first ratchet lock on the tail for 1 min. The tail was always stimulated proximal to a previous test site. Gross movement of the head, extremities, or body was taken as a positive test result, whereas grimacing, swallowing, chewing, or tail flick were considered negative results. The isoflurane concentration was reduced in decrements of 0.12 to 0.15% until the negative response became positive, with 12-15 min equilibration allowed after changes in concentration.^50,51 The MAC was considered to be the concentration midway between the highest concentration that permitted movement in response to the stimulus and the lowest concentration that prevented movement. Finally, intrathecal PE-10 catheter position from each animal was confirmed.
In some saline-treated rats, after initial baseline MAC determination, NMDA at the dose of 1.25 μg^38 or saline was injected intrathecally in a volume of 10 μl saline, followed by an injection of 10 μl saline to flush the catheter. Fresh NMDA solution was prepared for each experiment. […] At this isoflurane concentration, 10 min after the intrathecal injection of NMDA, the animals were tested again for reactivity to tail clamp. The concentration of isoflurane was increased, and response to tail clamp was checked every 12-15 min thereafter until a negative response was achieved. In some antisense ODN (50 μg)-treated rats, after initial MAC determination, NMDA or saline was also administered intrathecally. The MAC for isoflurane was again determined following the aforementioned procedures.

The next series relates to PSD-95/SAP90. The series is described as follows: immunoblot of PSD-95/SAP90 expression in spinal cord of OND-treated rats. Format: in vivo, rat. The source says: Antisense ONDs, widely used as research tools and even as drugs in clinical trials, inhibit protein expression by the mechanisms of (1) steric blockade of ribosomal subunit attachment to mRNA at the 5′ cap site; (2) interference with proper mRNA splicing through antisense binding to splice donor or splice acceptor sites; (3) Rnase-H-mediated degradation of hybridized mRNA.^18 To further examine whether the action of antisense OND for PSD-95/SAP90 above was specifically due to selective decrease or lack of PSD-95/SAP90 but not other proteins in the spinal cord, we detected PSD-95/SAP90, NMDA receptor subunits 2A/2B (NR2A/2B), neuronal nitric oxide synthase (nNOS) and SAP-102 in homogenates from crude lumbar enlargement segments in the normal, saline-treated (control) and OND-treated rats. […]
Animal preparation and behavioral testing. […] Nociception was evaluated by the radiant heat tail-flick test. The doses and time point of maximal effect of NMDA used in the present study were determined based on a previous study.^24 The tail-flick apparatus (Model 33B Tail Flick Analgesy Meter, IITC Life Science, Woodland Hills, Calif., USA) generated a beam of radiant heat that was focused on the underside of the tail, 5 cm from the tip. […] Nociception was assessed by the time required to induce tail-flick after applying radiant heat to the skin of the tail. […]

[1] abbreviates: 50 μg intrathecal every 24 h for 4 days.

Take “5′-AAGCCCTTGTTCCCATTT-3′ (DNA, backbone and methylation of C not given here; listed as Rattus rattus) [MS, missense OND control, reference compound]”: the “change of the value for isoflurane MAC compared to the control group” value in the series with Male Sprague-Dawley rats (50 μg intrathecal) is “did not significantly change”. Moreover, the “MAC (isoflurane)” value with Male Sprague-Dawley rats (setting [1]) is reported as 1.13 ± 0.15. In the series with PSD-95/SAP90 (FIGS. 1Aa and b), the “PSD-95/SAP90 protein in the postsynaptic density (PSD) fraction of the spinal cord” value is “enriched”.

In the case of “5′-TGTGATCTCCTCATACTC-3′ (DNA, backbone and methylation of C not given here; listed as Rattus rattus) [antisense oligonucletide corresponding to the PDZ domain nucleotides 241 to 258 of rat PSD-95/SAP90 mRNA]”, the results for the “decrease from isoflurane control MAC” value in the series on Male Sprague-Dawley rats (12.5 μg), in the series with Male Sprague-Dawley rats (25 μg) and in the series on Male Sprague-Dawley rats (50 μg) were 1%, 18% and 44%, respectively. Further, the “MAC (isoflurane)” value with Male Sprague-Dawley rats (12.5 μg intrathecal every 24 h for 4 days) worked out at 1.15 ± 0.18; in the series with Male Sprague-Dawley rats (25 μg intrathecal every 24 h for 4 days), 0.98 ± 0.14; in the series with Male Sprague-Dawley rats (setting [1]), 0.72 ± 0.05. Besides, the “increase in isoflurane MAC after NMDA compared to 50 μg antisense ODN alone” value in the series on Male Sprague-Dawley rats (pretreated with 50 μg antisense ODN, intrathecal NMDA 1.25 μg) is “did not result in a significant increase”. In the series on PSD-95/SAP90 (spinal cord, after intrathecal treatment (FIG. 1Ab)), the PSD-95/SAP90 expression was < 15 % of control.
